The results in this text go back to patent US11466019B2, “Triazolo[4,5-d] pyramidine derivatives and their use as purine receptor antagonists” (Vernalis (R&D) Limited, priority 2008, dated 2022).

In test [1] the target is T1, human adenosine A3 receptors (Homo sapiens, UniProt P0DMS8).
T1 construct: expressed in transfected cells; host or cells: CHO-K1
T1 sequence (P0DMS8 1-318): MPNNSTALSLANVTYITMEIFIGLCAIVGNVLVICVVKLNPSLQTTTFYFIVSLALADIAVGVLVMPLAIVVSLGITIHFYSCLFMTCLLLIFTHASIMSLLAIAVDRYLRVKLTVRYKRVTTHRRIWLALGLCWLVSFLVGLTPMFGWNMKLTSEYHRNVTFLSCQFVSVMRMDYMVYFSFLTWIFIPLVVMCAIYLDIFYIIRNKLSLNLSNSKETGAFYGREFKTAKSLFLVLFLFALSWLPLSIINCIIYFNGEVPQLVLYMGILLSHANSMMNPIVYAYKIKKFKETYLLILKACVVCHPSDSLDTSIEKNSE
The experiment in a line: Adenosine receptor binding: binding affinities at hA3 receptors ([125I]-AB MECA displacement). The note with it: Table 1; for Ki: [125I]-AB MECA displacement, CHO-K1 membranes, read-out: Binding Affinity hA3-Ki; for Binding Selectivity A3/A2a: ratio of Ki values. The method, then:
[formula] Adenosine Receptor Binding: Binding Affinities at hA3 Receptors
The resultant homogenate was kept for immediate use in the binding assay.
(§1) Total binding was determined using drug dilution buffer (50 mM Tris-HCl pH 7.5, 10 mM MgCl2, 5% DMSO). Non-specific binding was determined using 10 μM IB-MECA. […] Filters were left to dry overnight, and Microscint-0 scintillation fluid was then added to the filters. The filters were then left for at least 2 hours before the radioactivity was assessed using a Canberra Packard TopCount microplate scintillation counter.
(§2) Data was analysed using a 4 parameter logistical equation and non-linear regression which yields affinity constants (pIC50), and slope parameters:
(§3) [formula] where E is the quantity of binding and [A] is the competitor concentration. The Ki is then determined using the Cheng-Prusoff equation: […]

Test [2] deals with T2, human adenosine A2A receptors (Homo sapiens, UniProt P29274).
T2 construct: host or cells: HEK-293
The experiment in a line: Adenosine receptor binding: binding affinities at hA2A receptors ([3H]CGS-21680 displacement). The note with it: Table 1; [3H]CGS-21680 displacement, HEK-293 membranes; read-out: Binding Affinity hA2A-Ki. The method, then: Adenosine Receptor Binding: Binding Affinities at hA2A Receptors
as §1, with “The resultant homogenate was kept for immediate use in the binding assay. Binding assays were performed in a total volume of 250 μL, containing [^3H]-CGS21680 (20.0 nM), membranes and additional drugs. Total” for “Total”, “using 300” for “using 10”, “μM CHA.” for “μM IB-MECA.”
To determine the free ligand concentration, three vials were counted with 25 μL of [^3H]CGS21680 containing 4 mL of Ultima-Gold MV scintillant on a Beckman LS6500 multi-purpose scintillation counter.
as §2, §3

Test [3] deals with T3, human adenosine A1 receptors (Homo sapiens, UniProt P30542).
T3 construct: expressed in transfected cells; host or cells: CHO-K1
T3 sequence (P30542 1-326): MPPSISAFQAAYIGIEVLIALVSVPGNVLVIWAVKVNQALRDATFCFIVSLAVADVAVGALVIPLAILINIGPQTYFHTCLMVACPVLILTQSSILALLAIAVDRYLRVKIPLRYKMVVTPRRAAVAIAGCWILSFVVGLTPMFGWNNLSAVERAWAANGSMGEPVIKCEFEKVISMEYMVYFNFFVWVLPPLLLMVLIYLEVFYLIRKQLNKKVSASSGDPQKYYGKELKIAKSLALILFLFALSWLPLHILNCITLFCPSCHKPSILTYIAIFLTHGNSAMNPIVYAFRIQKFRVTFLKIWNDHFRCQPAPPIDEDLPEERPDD
The experiment in a line: Adenosine receptor binding: binding affinities at hA1 receptors ([3H]DPCPX displacement). The note with it: Table 1; for Ki: [3H]DPCPX displacement, CHO-K1 membranes, read-out: Binding Affinity hA1-Ki; for Binding Selectivity A1/A2a: ratio of Ki values. The method, then: Adenosine Receptor Binding: Binding Affinities at hA1 Receptors
The resultant homogenate was kept for immediate use in the binding.
Binding assays were performed in a total volume of 250 μL, containing [^3H]-DPCPX (3.0 nM), membranes and additional drugs. Total binding was determined using drug dilution buffer (50 mM Tris-HCl pH:7.5, 10 mM MgCl2, 5% DMSO). Non-specific binding was determined using 300 μM N6-cyclohexyladenosine (CHA). […] Filters were left to dry overnight, and Microscint-0 scintillation fluid was then added to the filters. The filters were then left for at least 2 hours before the radioactivity was assessed using a Canberra Packard TopCount microplate scintillation counter.
To determine the free ligand concentration, three vials were counted with 25 μL of [^3H]DPCPX containing 4 mL of Ultima-Gold MV scintillant on a Beckman LS6500 multi-purpose scintillation counter.
as §2, §3

Another test has as its target T4, hA2B receptors (Homo sapiens, UniProt P29275).
T4 construct: host or cells: HEK-293
T4 sequence (P29275 1-332): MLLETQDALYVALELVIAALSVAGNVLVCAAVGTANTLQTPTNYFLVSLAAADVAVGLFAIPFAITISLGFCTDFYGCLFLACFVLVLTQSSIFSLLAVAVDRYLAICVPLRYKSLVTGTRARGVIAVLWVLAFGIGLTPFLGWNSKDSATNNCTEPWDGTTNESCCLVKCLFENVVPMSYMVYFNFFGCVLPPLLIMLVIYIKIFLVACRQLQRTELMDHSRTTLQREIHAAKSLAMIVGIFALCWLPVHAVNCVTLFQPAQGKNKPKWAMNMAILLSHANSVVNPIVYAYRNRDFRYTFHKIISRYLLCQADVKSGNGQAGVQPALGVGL
The experiment in a line: Adenosine receptor binding: binding affinities at hA2B receptors ([3H]-ZM241385 displacement). The note with it: Table 1; for Ki: [3H]-ZM241385 displacement, HEK-293 membranes, read-out: Binding Affinity hA2B-Ki; for Binding Selectivity A2b/A2a: ratio of Ki values.

Test [4] concerns haloperidol-induced deficits in locomotor activity in mice. Nature of the test: Haloperidol-induced hypolocomotion model (HaloLMA). The note with it: female TO mice, intraperitoneal, haloperidol 0.2 mg/kg. The test is classed as in vivo. The source says:
Evaluation of Potential Anti-Parkinsonian Activity In Vivo: Haloperidol-Induced Hypolocomotion Model
This approach is also considered a valid method for screening drugs with potential antiparkinsonian effects. Thus, the ability of novel adenosine antagonists to block haloperidol-induced deficits in locomotor activity in mice can be used to assess both in vivo and potential antiparkinsonian efficacy.
Female TO mice (25-30 g) are used for all experiments. Animals are housed in groups of 8 (cage size-40 cm (width) by 40 cm (length) by 20 cm (height)) under 12 hour light/dark cycle (lights on 08:00), in a temperature (20±2° C.) and humidity (55±15%) controlled environment. Animals have free access to food and water, and are allowed at least 7 days to acclimatize after delivery before experimental use.
Liquid injectable haloperidol (e.g., 1 mL Serenance ampoules from Baker Norton, Harlow, Essex, each containing haloperidol BP 5 mg) are diluted to a final concentration of 0.02 mg/mL using saline. Test compounds are typically prepared as aqueous suspensions in 8% Tween. All compounds are administered intraperitoneally in a volume of 10 mL/kg.
1.5 hours before testing, mice are administered 0.2 mg/kg haloperidol, a dose that reduces baseline locomotor activity by at least 50%. Test substances are typically administered 5-60 minutes prior to testing. The animals are then placed individually into clean, clear polycarbonate cages (20 cm (width) by 40 cm (length) by 20 cm (height), with a flat perforated, Perspex lid). Horizontal locomotor activity is determined by placing the cages within a frame containing a 3 by 6 array of photocells linked to a computer, which tabulates beam breaks. Mice are left undisturbed to explore for 1 hour, and the number of beams breaks made during this period serves as a record of locomotor activity which is compared with data for control animals for statistically significant differences.
A number of the exemplified compounds of the present invention were tested in this assay and the results obtained are shown in Table 3, below.

T2 sequence (P29274 whole entry): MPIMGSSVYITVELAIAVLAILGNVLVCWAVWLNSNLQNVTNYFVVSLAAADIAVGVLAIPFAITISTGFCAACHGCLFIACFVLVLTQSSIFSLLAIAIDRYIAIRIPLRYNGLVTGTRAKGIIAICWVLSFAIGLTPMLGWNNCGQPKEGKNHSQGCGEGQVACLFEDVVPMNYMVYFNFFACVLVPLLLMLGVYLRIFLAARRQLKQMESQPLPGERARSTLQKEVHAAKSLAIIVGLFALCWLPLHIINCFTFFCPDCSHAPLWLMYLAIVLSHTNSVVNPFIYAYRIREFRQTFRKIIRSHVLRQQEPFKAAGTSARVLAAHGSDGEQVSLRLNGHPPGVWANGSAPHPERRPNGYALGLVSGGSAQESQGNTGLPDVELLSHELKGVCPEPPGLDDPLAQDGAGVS

For `COCc1cccc(Cn2nnc3c(-c4nc(C)cs4)nc(N)nc32)n1` [Example 30, 7-(4-methylthiazol-2-yl)-3-(6-[methoxymethyl]pyrid-2-ylmethyl)-3H-[1,2,3]triazolo[4,5-d]pyrimidin-5-amine], in test [1], the Ki (commonly a measure of affinity in units of concentration, obtained from inhibition or displacement) was found to be 4600 nM and the “Binding Selectivity A3/A2a” value worked out at 965. Also, the Ki in test [2] turned out to be 4.8 nM. In addition, in test [3], the Ki was 799 nM and the “Binding Selectivity A1/A2a” value was determined as 168. At hA2B receptors, the Ki amounted to 2370 nM and the “Binding Selectivity A2b/A2a” value stood at 498. In addition, in test [4], the “In Vivo activity HaloLMA MED” value is given as 3 mg/kg.

Regarding `Cc1ccc(-c2nc(N)nc3c2nnn3Cc2cccc(C3(O)CCC3)n2)o1` [Example 6], in test [1], the Ki was found to be 1500 nM and the “Binding Selectivity A3/A2a” value is 1326. Besides, in test [2], the Ki was 1.1 nM. For the same compound, in test [3], the Ki came to 354 nM and the “Binding Selectivity A1/A2a” value is listed as 313. On hA2B receptors, the Ki came to 1370 nM and the “Binding Selectivity A2b/A2a” value was 1216. The “In Vivo activity HaloLMA MED” value in test [4] is given as 1 mg/kg.

In the case of `CCOCCOCc1cccc(Cn2nnc3c(-c4ccc(C)o4)nc(N)nc32)n1` [Example 32], in test [1], the Ki turned out to be 2500 nM and the “Binding Selectivity A3/A2a” value worked out at 545. The Ki in test [2] came out at 4.6 nM. Besides, in test [3], the Ki stood at 334 nM and the “Binding Selectivity A1/A2a” value was 73. At hA2B receptors, the Ki worked out at 2020 nM and the “Binding Selectivity A2b/A2a” value came to 442. The “In Vivo activity HaloLMA MED” value in test [4] worked out at 1 mg/kg.

On to `COCc1cccc(Cn2nnc3c(-c4ccccc4)nc(N)nc32)n1` [Example 12, 7-phenyl-3-(6-[methoxymethyl]pyrid-2-ylmethyl)-3H-[1,2,3]triazolo[4,5-d]pyrimidin-5-amine], for which, in test [1], the Ki was 8170 nM and the “Binding Selectivity A3/A2a” value is recorded as 2893. Further, in test [2], the Ki turned out to be 2.8 nM. For the same compound, in test [3], the Ki turned out to be 270 nM and the “Binding Selectivity A1/A2a” value was 96. Moreover, at hA2B receptors, the Ki amounted to 1000 nM and the “Binding Selectivity A2b/A2a” value was found to be 354. In test [4], the “In Vivo activity HaloLMA MED” value amounted to 10 mg/kg.

`Cc1ccc(-c2nc(N)nc3c2nnn3Cc2cccc(C3(O)CCCCC3)n2)o1` [Example 4, 7-(5-methylfuran-2-yl)-3-(6-[1-hydroxy-1-cyclohexyl]pyrid-2-ylmethyl)-3H-[1,2,3]triazolo[4,5-d]pyrimidin-5-amine]: in test [1], the Ki stood at 1640 nM and the “Binding Selectivity A3/A2a” value stood at 528. Also, the inhibition constant Ki in test [2] amounted to 3.1 nM. Further, in test [3], the Ki came to 196 nM and the “Binding Selectivity A1/A2a” value is recorded as 63. At hA2B receptors, the Ki came out at 1130 nM and the “Binding Selectivity A2b/A2a” value is listed as 366. Also, the “In Vivo activity HaloLMA MED” value in test [4] stood at 3 mg/kg.

For the compound `Cc1ccc(-c2nc(N)nc3c2nnn3Cc2cccc(C(C)(C)O)n2)o1` [Example 2, 7-(5-methylfuran-2-yl)-3-(6-[1-hydroxy-1-methylethyl]pyrid-2-ylmethyl)-3H-[1,2,3]triazolo[4,5-d]pyrimidin-5-amine], in test [1], the Ki was 706 nM and the “Binding Selectivity A3/A2a” value is 375. Further, the Ki in test [2] was found to be 1.9 nM. For the same compound, in test [3], the Ki came out at 360 nM and the “Binding Selectivity A1/A2a” value is listed as 192. On hA2B receptors, the Ki worked out at 2190 nM and the “Binding Selectivity A2b/A2a” value is recorded as 1165. Further, the “In Vivo activity HaloLMA MED” value in test [4] amounted to 1 mg/kg.

In the case of `COC(C)(C)OCc1cccc(Cn2nnc3c(-c4ccc(C)o4)nc(N)nc32)n1` [Example 36, 7-(5-methylfuran-2-yl)-3-(6-[1-methoxy-1-methylethyl]oxymethylpyrid-2-ylmethyl)-3H-[1,2,3]triazolo[4,5-d]pyrimidin-5-amine], in test [1], the Ki came out at 939 nM and the “Binding Selectivity A3/A2a” value is recorded as 208. In test [2], the Ki came out at 4.5 nM. Moreover, in test [3], the Ki stood at 422 nM and the “Binding Selectivity A1/A2a” value is reported as 93. For the same compound, the “In Vivo activity HaloLMA MED” value in test [4] was 1 to 3 mg/kg.

For `Nc1nc(-c2nccs2)c2nnn(Cc3cccc(CO[C@H]4CCOC4)n3)c2n1` [Example 38, S-7-(thiazol-2-yl)-3-(6-[tetrahydrofuran-3-yl]oxymethylpyrid-2-ylmethyl)-3H-[1,2,3]triazolo[4,5-d]pyrimidin-5-amine], the Ki in test [2] is 28.4 nM; in test [3] it was 2090 nM; at hA2B receptors, 2980 nM. Further, in test [3], the “Binding Selectivity A1/A2a” value was determined as 73. In addition, at hA2B receptors, the “Binding Selectivity A2b/A2a” value is reported as 105. Also, the “In Vivo activity HaloLMA MED” value in test [4] was found to be 10 mg/kg.

Regarding `Nc1nc(-c2ccccc2)c2nnn(Cc3cccc(C4(O)CCCC4)n3)c2n1` [Example 9, 7-phenyl-3-(6-[1-hydroxy-1-cyclopentyl]pyrid-2-ylmethyl)-3H-[1,2,3]triazolo[4,5-d]pyrimidin-5-amine], the Ki in test [2] is 9.8 nM; in test [3] it was 706 nM; at hA2B receptors, 3410 nM. Moreover, in test [3], the “Binding Selectivity A1/A2a” value is 72. Also, at hA2B receptors, the “Binding Selectivity A2b/A2a” value is 347. Besides, the “In Vivo activity HaloLMA MED” value in test [4] stood at 10 mg/kg.
